“Also recorded” adds a separate entry of the source. Read-outs that look alike come from different tables or passages of the source.
How the values were obtained:
[1] = system: Aβ40; experiment: Aβ40 levels in conditioned media by sandwich ELISA; format: cell-based, human; conditions: SK-N-SH cells; for levels of Aβ40 in conditioned media: 0.25-1.0 μg/ml (1-4 μM)
Experimental: (§1) Cell culture and drug treatment. Human neuroblastoma (SK-N-SH, ATCC HTB-11, Biedler et al., Cancer Res. 1973, 33(11): 2643-52) cells were seeded at approximately 2×10^6 cells/well in a 6-well plate. Thereafter, drug concentrations of memantine were initiated at 0 μg/ml (control), 0.25 μg/ml (1 μM), 0.5 μg/ml (2 μM), and 1.0 μg/ml (4 μM) in MEM media supplemented with 1% FBS and 1× antibiotic. Treatment period was 12 days with a collection of conditioned media (CM) at 3 day intervals. Following collection, fresh memantine-media was added and the process repeated until harvest on day 12. The levels of both sAPP and Aβ40 were determined as described below.
Analysis of Aβ levels by ELISA. Quantitative solid phase sandwich ELISA (enzyme linked immunosorbent assay) was used to measure Aβ40 levels in the conditioned media samples. Specifically, an affinity purified anti-human Aβ (35-40) rabbit IgG was used as a capture antibody, and affinity purified HRP-conjugated anti-human Aβ (11-28) rabbit IgG Fab was used as a detection antibody (both reagents from IBL (Japan)). Since an antibody against Aβ (11-28) was used as a secondary conjugated antibody, human Aβ40 variants which cleaved at N-terminus sites were also detectable in the ELISA assay. TMB was used as a coloring agent (Chromogen). The measurement range was from 15.6 to ˜1,000 pg/ml (3.6 to ˜230.9 pmol/l).
(§2) Data Analysis. Data were analyzed from 3-6 independent cell culture experiments. Statistical analysis (e.g., analysis of variance and post-hoc tests for multiple comparisons) was performed using the SPSS program (Statistical Products and Services Solutions, Chicago, Ill.) and included the mean and the standard error of the mean.

[2] = system: sAPP; experiment: sAPP levels in conditioned media by Western blotting (mAb22C11); format: cell-based, human; conditions: SK-N-SH cells; for levels of sAPP in conditioned media: 0.25-1.0 μg/ml (1-4 μM)
Experimental: as §1
Analysis of sAPP levels by Western blotting. Levels of total sAPP in the CM samples were measured by denaturing polyacrylamide gel electrophoresis (SDS-PAGE) followed by the Western immunoblotting using mAb22C11 antibody. Samples were loaded on the gel at equal volume of conditioned media (30 μg protein/sample). The density of specific APP bands in the blot was quantified using the NIH Image software. Levels of APP were expressed as a percent of controls. Levels of the constitutively expressed β-actin protein were measured in parallel as an internal control.
as §2

[3] = system: human neuroblastoma cells SK-N-SH; experiment: Cellular toxicity, LDH assay; format: cell-based; conditions: 1-4 μM
Experimental: as §1
Cell Toxicity and Viability Assays. Cell viability in control and memantine-treated samples was measured using MTT (the tetrazolium dye 3-[4,5-dimethylthiazol-2-yl]-2,5-diphenyltetrazolium bromide). Cellular toxicity was measured uding lactate dehydrogenase (LDH) (Sigma, St. Louis, Mo.) assay.

[4] = system: rat hippocampal cells; conditions: Miguel-Hidalgo et al. 2002; cited from earlier work
[5] = humans; Kornhuber and Quack 1995; cited from earlier work
[6] = system: APP/PS1 and NT mice; experiment: Morris water maze (spatial learning and memory); format: in vivo; conditions: 30 mg/kg/day; for time spent in the target area, probe trial: sixth day, 60 s, mean±sem
Text: (§3) Transgenic mice expressing either human PS1 harboring the familial AD-linked A246E mutation or chimeric mouse/human APP695 harboring a human Aβ domain and mutations (K595N, M596L) linked to Swedish familial AD pedigrees (APPswe) (Borchelt et al., 1997) were back-crossed to C57BL/6J for 16 generations and then crossed together to generate double transgenic mice co-expressing both transgenes. In all tests, 8-month-old double-mutant male mice (APP/PS1; n=45) and their non-transgenic littermates (NT; n=36, ) were used. […] The therapeutic dose of memantine was defined as the dose producing a steady-state plasma drug level of ˜1 μM and was determined in 8-month-old male C57 BL/6J mice (background strain of the transgenic mice).
Memantine treatment: Based on the pilot study, the dose of 30 mg/kg/day (see Results section for details) was chosen for the behavioral study and administered in drinking water for 3 weeks. Memantine was administered to 23 APP/PS1 mice and 19 NT mice. The placebo group (APP/PS1: n=22; NT: n=17) received drinking water without memantine. Behavioral testing started 2 weeks after treatment onset and continued for one week. After two weeks of treatment, mice were tested for exploratory activity, isolation-induced aggression, and performance in the Morris water maze.
Morris water maze: The Morris water maze was used to measure spatial learning and memory. The apparatus was a black plastic pool with a diameter of 120 cm. A black escape platform (square, 14×14 cm) was located 1.0 cm below (hidden) the water surface. The temperature of the water was kept constant throughout the experiment (20±0.5° C.), and a 10-min recovery period was allowed between the training trials. First, the mice were pre-trained to find and climb onto the platform for two days by using an alley (1 m×14 cm×25 cm) leading to the platform located 1 cm below the water. The training consisted of 8 consecutive days of testing, with 5 trials per day. […] During the first 5 days of testing the mice were trained with a hidden platform. The platform location was kept constant and the starting position varied between four constant locations at the pool rim. Mice were placed in the water with their nose pointing towards the wall at one of the starting points in a random manner. On the sixth day, the platform was removed and the mice were allowed to swim for 60 s to determine their search bias. On testing days 7 and 8, a black curtain was hung around the swimming pool in order to conceal all extra-maze visual cues. […] Timing of the latency to find the submerged platform was started and ended by the experimenter. A computer connected to an image analyzer (HVS Image®, Hampton, UK) monitored the swim pattern. During the water maze training, we measured swimming speed and latency to find the platform. The wall-swimming tendency (thigmotaxis) was assessed by dividing the pool into 3 concentric zones of equal surface area and calculating the time spent in the outer zone. Search bias during the probe trial was measured by calculating the time the mice spent in the vicinity of where the platform was previously located. We defined this as a target area centered on the platform with a diameter of 30 cm. This target area comprised 6.25% of the total surface area, thus a random swim for 60 s in the pool would yield a dwell time of 3.75 s in the target area during the probe trial.
(§4) Statistical analysis All statistical analyses were performed using SPSS for Windows software, version 11.5.1 (SPSS, Chicago, Ill.). The effects of genotype, treatment, training day, and their interaction with the behavioral parameters of exploratory activity and performance in the Morris water maze were evaluated by analysis of variance (ANOVA) for repeated measures. Attack latency from the isolation-aggression test was analyzed by two-way ANOVA with genotype and treatment as factors.

[7] = system: Fisher 344 rats; conditions: 30 mg/kg/day for 8 weeks, Barnes et al. 1996; cited from earlier work
[8] = system: APP/PS1 and NT mice; experiment: Isolation-induced aggression test; format: in vivo; conditions: 30 mg/kg/day in drinking water
Experimental: Isolation-induced aggression: All test mice (‘residents’) had been housed in individual cages for at least 3 weeks prior to the start of this test. ‘Intruders’ were NT male C57B1/J6 mice, 16-20 weeks old at the time of testing, housed in groups of 4-8 since weaning. A randomly chosen intruder was placed in the resident's cage, and aggression of the resident was assessed by measuring attack latency, i.e. the time in seconds between the introduction of the intruder into the cage and the first attack by the resident. […]
Statistical analysis All statistical analyses were performed using SPSS for Windows software, version 11.5.1 (SPSS, Chicago, Ill.). The effects of genotype, treatment, training day, and their interaction with the behavioral parameters of exploratory activity and performance in the Morris water maze were evaluated by analysis of variance (ANOVA) for repeated measures. […]

[9] = Dose-finding pilot study: steady-state plasma concentration of memantine; format: in vivo, male C57BL/6J mice; conditions: male, C57BL/6J, mouse, mean±SEM, read-out: steady-state plasma level
Text: as §3
Dose-finding pilot study: A pilot study was undertaken to determine the therapeutic dose of memantine [i.e., the dose of memantine producing a steady-state plasma drug level of around 1 μM, which several preclinical and clinical studies have indicated is therapeutic (Kornhuber and Quack, 1995; Zajaczkowski et al., 1996)] to be used in subsequent experiments in transgenic mice. Memantine (Forest Research Institute, Jersey City, N.J.) was administered orally (via drinking water) to male C57BL/6J mice at the doses of 10 mg/kg/day (n=10), 30 mg/kg/day (n=10) and 100 mg/kg/day (n=10) for 4 weeks. The placebo group (n=10) had drinking water without memantine. Blood samples were taken from the femoral vein 4 weeks after the initiation of drug treatment to determine the steady-state plasma concentration of memantine. Plasma samples were analyzed at Merz Pharmaceuticals GmbH (Frankfurt am Main, Germany) using a gas chromatograph system coupled with a mass selective detector (Kornhuber and Quack., 1995).

[10] = system: APP/PS1 and NT mice; experiment: Exploratory activity (TruScan automated activity monitor); format: in vivo; conditions: 30 mg/kg/day in drinking water, 10-min recording
Text: as §3, with “mice). […]” for “mice).”
Exploratory activity: TruScan® (Coulbourn Instruments, CO, USA) automated activity monitor based on infrared photo detection was used for monitoring exploratory activity. […] Activity was measured for 10 min in two separate sessions separated by 48 h.
as §4, with “Attack latency from the isolation-aggression test was analyzed by two-way ANOVA with genotype and treatment as factors.” left out

[11] = system: human neuroblastoma cells; conditions: Lahiri et al. 1998; cited from earlier work

Q: Which results are given for `CC12CC3CC(C)(C1)CC(N)(C3)C2` [memantine, 1-amino-3,5-dimethyl adamantane]?
A: levels of Aβ40 in conditioned media ([1]; day 3): no significant changes; levels of Aβ40 in conditioned media ([1]; day 6, compared to negative control): significant decrease; levels of Aβ40 in conditioned media ([1]; day 9, compared to negative control): significant decrease; Aβ40 levels in the conditioned media ([1]; 1-4 μM for up to 12 days): a decrease in its levels; sAPP levels in the conditioned media ([2]; 1 μM for 6-12 days): trend towards a decrease; levels of sAPP in conditioned media ([2]; day 3): no significant changes; levels of sAPP in conditioned media ([2]; day 6): dose-dependent decrease; levels of sAPP in conditioned media ([2]; day 9 and day 12): persisting or further decreasing; sAPP levels in the conditioned media ([2]; 2-4 μM for 6-12 days): significantly decreased; cellular toxicity (LDH) [3]: not affected; also recorded: no toxicity; Aβ-induced apoptosis [4]: protected; therapeutically effective circulating concentration [5]: approximately 1 μM; finding the visible platform ([6]; APP/PS1 mice (FIG. 11B), days 7-8): did not show a significant improvement; time spent in the outer zone of the pool (thigmotaxis) ([6]; APP/PS1 mice, p=0.04): significantly reduced; time spent in the target area, probe trial ([6]; APP/PS1 mice): 39.0 ± 2.0 s; escape latency, hidden platform ([6]; APP/PS1 mice, vs placebo-treated APP/PS1 mice, p=0.02): reduced; time spent in the outer zone of the pool (thigmotaxis) ([6]; NT mice, p=0.004): significantly reduced; escape latency (performance), hidden platform ([6]; NT mice, p=0.09 (not significant)): trend towards improved performance; time spent in the target area, probe trial ([6]; NT mice): 36.1 ± 2.6 s; performance level, hidden platform, compared with placebo-treated NT mice ([6]; memantine-treated APP/PS1 mice, Tukey's post-hoc p=0.96): did not differ; water maze learning [7]: improved water maze learning; aggressive behavior (latency to attack the intruder) ([8]; APP/PS1 mice): not significantly modified; aggressive behavior ([8]; NT mice): did not increase; concentration at 4 weeks ([9]; 10 mg/kg/day oral (drinking water)): 490 ± 60 nM; concentration at 4 weeks ([9]; 30 mg/kg/day oral (drinking water)): 1140 ± 70 nM; concentration at 4 weeks ([9]; 100 mg/kg/day oral (drinking water)): 5540 ± 400 nM; horizontal activity (distance traveled) [10]: did not significantly affect; vertical activity (rearing) [10]: did not significantly affect

Q: What does the source list for `Nc1c2c(nc3ccccc13)CCCC2` [tacrine]?
A: cellular damage or toxicity [11]: absence of any detectable cellular damage or toxicity; release of Aβ40 [11]: reduce; release of Aβ42 [11]: reduce; release of sAPPα [11]: reduce; release of total Aβ [11]: reduce

From patent publication US20050113458A1, “Use of 1-aminocyclohexane derivatives to modify deposition of fibrillogenic a-beta peptides in amyloidopathies” (Forest Laboratories, Inc., priority 2003, published 2005)
